Results reported in US7745465B2, “Method of enhancing cellular production of molecular chaperone, hydroxylamine derivatives useful for enhancing the chaperone production and the preparation thereof” (CytRx Corporation, priority 1995, dated 2010).

Legend:
Hsp72 [1] = assay: Western blot of hsp72 in heat shocked H9c2 cells; format: cell-based, rat
Protocol: (§1) Experiments set forth in this section were conducted to determine whether N-[2-hydroxy-3-(1-piperidinyl)propoxy]-3-pyridinecarboximidoyl chloride maleate acts to increase the expression of molecular chaperon by a cell. The accumulation of different heat shock proteins subsequent to a period of exposure to heat shock alone, and to heat shock in combination with N-[2-hydroxy-3-(1-piperidinyl)propoxy]-3-pyridinecarboximidoyl chloride maleate administration, was examined by adding 10^−5 M of N-[2-hydroxy-3-(1-piperidinyl)propoxy]-3-pyridinecarboximidoyl chloride maleate before, during, or immediately after hyperthermic treatment of heart myogenic cells (H9c2 cells).
(§2) The embryonic rat heart-derived cell line H9c2 was obtained from European Collection of Animal cell Cultures (ECACC) (88092904). The cells were maintained at 37° C. in Dulbecco's modified Eagle's medium (DMEM) supplemented with 10% fetal calf serum (GIBCO) in JOUAN C02 thermostat (5% CO2).
(§3) Heat shock was performed at 43° C. in CO2 thermostat for the given time intervals (20, 40, 60, 90 and 120 min.). Cells were then taken back to 37° C. for 6 hours and proteins were extracted for SDS-PAGE. […]
(§4) Protein concentration was determined from 5:1 samples by the Bradford assay (M. M. Braford, Anal. Biochem., 72: 248-254 (1976)) in three parallel. […]

Grp94 = assay: Western blot of Grp94 in heat shocked H9c2 cells; format: cell-based, rat
Protocol: as §1, §2, §3, §4

[2] = test system: mitochondrial ATP synthesis; assay: Coupling of oxidative phosphorylation / mitochondrial ATP synthesis after heat shock (oxygraph); format: cell-based, Saccharomyces cerevisiae; conditions: 10 to 100 μM, one hour at 25° C. before 42° C. heat shock
Protocol: The experimental protocol for determining the impairment of oxidative phosphorylation and mitochondrial ATP synthesis in Saccharomyces cerevisiae is provided in Patriarca et al., Bio-chemistry and Cell Biology, 70:207-214, 1992, said reference being fully incorporated herein by reference.
To S. cerevisiae cells that were maintained at 25° C., varying concentration of N-[2-hydroxy-3-(1-piperidinyl)propoxy]-3-piridinecarboximidoyl chloride maleate was introduced (concentrations between 10 to 100 μM), cells were then incubated for one hour at 25° C. in the presence of N-[2-hydroxy-3-(1-piperidinyl)propoxy]-3-piridinecarboximidoyl chloride maleate. The temperature was then increased to 42° C., and the oxygraph measurements were taken as described in the Patriarca reference.

[3] = test system: isolated working rat hearts; assay: Isolated working rat hearts, 10-min. coronary occlusion and 3-min. reperfusion; conditions: for cardioprotection after pretreatment: 20 mg/kg
Protocol: After a 10-min. aerobic working perfusion, hearts (n=10 in each group) were subjected to a 10-min. coronary occlusion followed by a 3-min. reperfusion in the presence of 0.05, 0.5, 5.0, 20.0, and 50 mg/L N-[2-hydroxy-3-(1-piperidinyl)propoxy]-3-pyridine carboximidoyl chloride maleate, respectively.
After excision of the hearts, they were subjected to the coronary occlusion protocol detailed above while perfused in presence/absence of 20 mg/l N-[2-hydroxy-3-(1-piperidinyl)propoxy]-3-piridinecarboximidoyl chloride maleate.

hsp72 [4] = assay: HgCl2 stress induced hsp72 level in U-937 cells; format: cell-based, human; conditions: 10^−5 M, 0.5 μg/ml HgCl2, 6 hours
Protocol: From the applied cells the 3T3 and L-929 mouse fibroblasts were cultured in MEM medium and grew in monolayer, the U-937 human leukemia cells were maintained in RPMI-1640 medium, in suspension culture, while the HeLa human epithelial cells were cultured in DMEM medium and in monolayer form. Cell cultures were maintained as described in example 6.2 (a) with the difference that cells were cultured in the above mentioned culture mediums.
Experiments were carried out applying stress before and after the drug treatment. Stress was provoked by heat, by chemical agent, HgCl2 treatment. The test compounds were applied in the treatments at the 10^−5 M concentration.
These experiments were performed on HeLa, human epithelial and U-937, human leukemia cells using HgCl2 to induce stress response. Drug treatment was carried out before cells were exposed to the stress. Test cultures were prepared and treatments were performed as in the experiments with the 3T3 cells. After the drug treatment cells were incubated at 37° C. for 15 min. than all the cultures except two (non stressed control) were exposed to 0.5 μg/ml concentration of HgCl2 and the incubation was followed. The induced amount of hsp72 was measured 6 hours after the exposure to stress.

## O=C(O)/C=C\C(=O)O.OC(CON=C(Cl)c1cccnc1)CN1CCCCC1 (stereo not drawn) [N-[2-hydroxy-3-(1-piperidinyl)-propoxy]3-pyridinecarboximidoyl chloride maleate]
Hsp72 [1]; added during the recovery phase
  effect on hsp72 level: also effective though to a lesser degree
Hsp72 [1]; administration before heat stress, 60 min. heat stress
  hsp72 level increased when comparing to 37° C. samples: about 50 times
Grp94; addition during recovery from heat stress lasting for 40 to 60 min.
  effect on Grp94 level: almost effective as the administration
Grp94; preaddition of the drug combined with a 20 min. long heat shock
  increase of Grp94 compared to 43° C. treatment: 4 times
[2]
  protection from the impairment of mitochondrial ATP synthesis: 40-60%
[3]; five hours before isolation of the hearts
  cardioprotection after pretreatment: not observable
[3]; one hour before isolation of the hearts
  cardioprotection after pretreatment: still afforded cardioprotection
[3]; 0.05-50 mg/L, bell-shaped, 20 mg/L most pronounced
  ischemia-induced deterioration of cardiac function: alleviated ischemia-induced deterioration of cardiac function
[3]; 50 mg/L
  heart rate before ischemia: significant bradycardia
[3]; before ischemia, bell-shaped concentration-response
  coronary flow (CF): increased coronary flow (CF)
[3]; higher concentrations
  reperfusion-induced ventricular fibrillation: dose-dependent antiarrhythmic effect
hsp72 [4]
  increase of the stress induced hsp72 level relative to the stress exposed control: more than 20%
